Values after ≈ are worked out from the molar mass of the structure shown. Where two headings read alike, the source gives them in different places.
Experiments:
[1] = target: T1, Sigma^70 saturated E. coli RNA Polymerase (Escherichia coli, UniProt P0A8T7+P0A8V2); assay: RNA polymerase inhibition assay (E. coli enzyme); format: biochemical; details: Table 2; read-out: RNA-pol IC50 (μM) E. coli
T1 construct: purchased Epicenter
Description: The compounds of the present invention can be evaluated for antibacterial activity in a variety of assay formats known to those of skill in art. The specific assays used to select the most appropriate compound for use will typically depend on the targeted bacteria or infection. One common assay involves evaluation of the compounds as RNA polymerase inhibitors. In this assay, buffer (250 mM KCl, 5% Glycerol, 10 mM MgCl2, 0.1 mg/ml BSA) is combined with 6 mM B-M.E., PT5 DNA template, and 1.3 ug/rxn Sigma^70 saturated E. coli RNA Polymerase (Epicenter). The compound is then added in a manner not to exceed 5% DMSO. Nucleotide triphosphates are then added at the following concentration: 250 uM ATP, […] and UTP with 100 uM cold CTP and 50 uM alpha ^32P CTP. The mixture is incubated for 10 min at about 37° C. A [2×] loading buffer is added and the mixture is then run on a 6% urea denaturing PAGE until bromophenol blue reaches the edge of plate. The gel is soaked (about 20 minutes in 10% MeOH and 10% acetic acid, to remove urea), then dried (about 55 minutes at about 85° C. (BioRad Gel Drier)) and exposed to a Phospho Imaging Plate for 1 hour. The plate is then read on a Fujix Bas1000 Imaging System and quantified using MacBas v2.0 software. An IC50 (in uM) can be calculated as the concentration of a drug which reduces the enzyme activity to 50% of the control.

RNA-pol S. aureus = RNA-pol S. aureus (Staphylococcus aureus, UniProt P47768+Q2G0N5); assay: RNA polymerase inhibition assay (S. aureus enzyme); format: biochemical
S. aureus = assay: MIC determination, S. aureus; format: cell-based; details: Staphylococcus aureus; Table 2; read-out: MIC (μM) S. aureus
Description: The compound is added and two-fold dilutions are made. The final volume in the 96-well plate is about 100 uL. The plate is incubated at 37° C. in the dark with shaking. After 16 hours of incubation, growth is monitored by reading A600 or by visual inspection. […] Methods for dilution antimicrobial susceptibility tests for bacteria that grow aerobically. Approved standard M7-A3; National Committee for Clinical Laboratory Standards: Villanova, Pa.

E. coli (tolC) = assay: MIC determination, E. coli (tolC); format: cell-based; details: Escherichia coli, read-out: MIC (μM) E. coli (tolC)
Description: For MIC determinations for selected bacteria, log phase growing bacteria are re-suspended at 1×10^5 bacteria per mL in LB medium. The compound is added and two-fold dilutions are made. The final volume in the 96-well plate is about 100 uL. The plate is incubated at 37° C. in the dark with shaking. After 16 hours of incubation, growth is monitored by reading A600 or by visual inspection. MIC is defined as the minimum concentration of drug resulting in inhibition of visible growth of bacterial under the conditions described (above) in National Committee for Clinical Laboratory Standards 1993. Methods for dilution antimicrobial susceptibility tests for bacteria that grow aerobically. Approved standard M7-A3; National Committee for Clinical Laboratory Standards: Villanova, Pa.

[2] = Table 2, read-out: RNA-pol IC50 (μM) S. aureus

T1 sequence (P0A8V2 whole entry): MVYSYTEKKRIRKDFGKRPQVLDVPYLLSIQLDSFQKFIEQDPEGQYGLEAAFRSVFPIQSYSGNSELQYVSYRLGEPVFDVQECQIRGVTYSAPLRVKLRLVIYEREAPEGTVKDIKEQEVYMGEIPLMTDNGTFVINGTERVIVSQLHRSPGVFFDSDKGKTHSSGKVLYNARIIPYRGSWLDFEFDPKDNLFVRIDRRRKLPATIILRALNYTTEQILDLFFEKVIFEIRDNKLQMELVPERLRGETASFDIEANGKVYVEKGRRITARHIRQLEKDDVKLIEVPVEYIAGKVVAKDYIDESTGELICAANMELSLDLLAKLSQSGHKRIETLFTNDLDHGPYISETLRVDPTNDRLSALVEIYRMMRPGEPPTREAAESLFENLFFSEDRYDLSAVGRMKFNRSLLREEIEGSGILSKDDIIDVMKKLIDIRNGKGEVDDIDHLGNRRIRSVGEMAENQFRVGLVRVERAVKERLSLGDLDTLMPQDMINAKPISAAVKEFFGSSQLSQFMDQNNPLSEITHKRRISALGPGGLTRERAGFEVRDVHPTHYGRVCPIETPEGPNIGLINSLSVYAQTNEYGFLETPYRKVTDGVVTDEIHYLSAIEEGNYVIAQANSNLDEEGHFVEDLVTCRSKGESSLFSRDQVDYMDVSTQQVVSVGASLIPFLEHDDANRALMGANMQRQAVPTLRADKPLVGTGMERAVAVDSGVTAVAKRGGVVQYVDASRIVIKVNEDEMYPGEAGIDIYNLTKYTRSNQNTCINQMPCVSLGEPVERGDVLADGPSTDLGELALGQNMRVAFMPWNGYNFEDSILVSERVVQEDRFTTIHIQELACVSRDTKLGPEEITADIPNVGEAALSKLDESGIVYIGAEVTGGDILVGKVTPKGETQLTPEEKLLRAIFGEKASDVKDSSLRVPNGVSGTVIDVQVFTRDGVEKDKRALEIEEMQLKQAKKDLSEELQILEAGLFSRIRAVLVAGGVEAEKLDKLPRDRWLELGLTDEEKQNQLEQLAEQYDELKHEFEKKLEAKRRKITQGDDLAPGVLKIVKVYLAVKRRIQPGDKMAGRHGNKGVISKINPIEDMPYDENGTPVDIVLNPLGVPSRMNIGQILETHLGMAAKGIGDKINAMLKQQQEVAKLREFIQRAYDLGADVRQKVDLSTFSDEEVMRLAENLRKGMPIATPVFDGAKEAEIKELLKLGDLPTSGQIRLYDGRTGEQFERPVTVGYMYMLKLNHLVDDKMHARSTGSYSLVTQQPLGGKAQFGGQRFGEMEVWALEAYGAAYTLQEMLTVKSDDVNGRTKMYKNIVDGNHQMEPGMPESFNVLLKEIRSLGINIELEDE
T1 sequence (P0A8T7 whole entry): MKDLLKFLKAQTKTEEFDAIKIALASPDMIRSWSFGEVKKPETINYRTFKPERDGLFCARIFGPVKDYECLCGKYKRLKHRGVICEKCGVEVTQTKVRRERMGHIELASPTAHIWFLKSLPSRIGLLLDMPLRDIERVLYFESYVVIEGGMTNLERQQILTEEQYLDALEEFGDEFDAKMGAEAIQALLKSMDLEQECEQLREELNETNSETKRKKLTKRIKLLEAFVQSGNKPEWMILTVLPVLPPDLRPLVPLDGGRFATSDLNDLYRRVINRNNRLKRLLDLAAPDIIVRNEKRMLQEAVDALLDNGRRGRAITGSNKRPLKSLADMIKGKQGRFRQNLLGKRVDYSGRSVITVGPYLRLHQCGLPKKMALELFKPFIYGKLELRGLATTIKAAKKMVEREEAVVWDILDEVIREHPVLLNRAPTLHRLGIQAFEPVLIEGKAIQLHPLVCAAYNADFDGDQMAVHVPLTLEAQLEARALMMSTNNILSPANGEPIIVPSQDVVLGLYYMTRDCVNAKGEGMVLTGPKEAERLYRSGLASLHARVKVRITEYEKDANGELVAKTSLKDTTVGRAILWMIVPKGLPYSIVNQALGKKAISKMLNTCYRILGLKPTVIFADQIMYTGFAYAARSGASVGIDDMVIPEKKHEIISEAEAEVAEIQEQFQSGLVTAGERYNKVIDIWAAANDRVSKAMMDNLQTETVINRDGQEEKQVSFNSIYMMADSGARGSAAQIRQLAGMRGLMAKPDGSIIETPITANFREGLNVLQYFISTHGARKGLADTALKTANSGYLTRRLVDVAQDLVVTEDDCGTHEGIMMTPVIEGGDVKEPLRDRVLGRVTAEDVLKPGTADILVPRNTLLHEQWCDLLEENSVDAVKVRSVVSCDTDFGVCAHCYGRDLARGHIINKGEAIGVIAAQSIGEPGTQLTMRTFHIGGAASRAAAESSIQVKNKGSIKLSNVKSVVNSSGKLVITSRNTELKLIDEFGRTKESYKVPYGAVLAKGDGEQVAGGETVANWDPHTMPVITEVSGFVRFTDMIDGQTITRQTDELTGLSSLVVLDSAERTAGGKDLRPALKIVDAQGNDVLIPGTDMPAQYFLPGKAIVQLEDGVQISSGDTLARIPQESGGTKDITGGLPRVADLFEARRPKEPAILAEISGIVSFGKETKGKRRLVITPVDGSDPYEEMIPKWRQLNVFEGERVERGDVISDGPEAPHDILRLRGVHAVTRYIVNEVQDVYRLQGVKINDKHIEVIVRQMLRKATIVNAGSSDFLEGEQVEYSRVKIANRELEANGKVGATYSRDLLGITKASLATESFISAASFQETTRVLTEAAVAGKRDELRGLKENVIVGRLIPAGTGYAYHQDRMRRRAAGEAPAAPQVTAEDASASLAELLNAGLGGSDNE
T1 sequence (P0A7Z4 whole entry partner): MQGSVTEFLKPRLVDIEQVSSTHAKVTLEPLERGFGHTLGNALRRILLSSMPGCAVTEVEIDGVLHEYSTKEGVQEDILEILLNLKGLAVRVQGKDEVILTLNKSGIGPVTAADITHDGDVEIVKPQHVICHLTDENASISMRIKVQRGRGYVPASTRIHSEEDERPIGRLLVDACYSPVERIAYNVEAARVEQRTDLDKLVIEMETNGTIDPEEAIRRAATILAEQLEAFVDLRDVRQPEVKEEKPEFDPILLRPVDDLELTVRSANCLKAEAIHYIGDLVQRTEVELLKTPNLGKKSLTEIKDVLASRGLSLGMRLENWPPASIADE
T1 sequence (P0A800 whole entry partner): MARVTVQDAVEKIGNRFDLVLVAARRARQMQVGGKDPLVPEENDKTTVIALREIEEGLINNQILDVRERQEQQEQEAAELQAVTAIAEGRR
T1 sequence (P00579 whole entry partner): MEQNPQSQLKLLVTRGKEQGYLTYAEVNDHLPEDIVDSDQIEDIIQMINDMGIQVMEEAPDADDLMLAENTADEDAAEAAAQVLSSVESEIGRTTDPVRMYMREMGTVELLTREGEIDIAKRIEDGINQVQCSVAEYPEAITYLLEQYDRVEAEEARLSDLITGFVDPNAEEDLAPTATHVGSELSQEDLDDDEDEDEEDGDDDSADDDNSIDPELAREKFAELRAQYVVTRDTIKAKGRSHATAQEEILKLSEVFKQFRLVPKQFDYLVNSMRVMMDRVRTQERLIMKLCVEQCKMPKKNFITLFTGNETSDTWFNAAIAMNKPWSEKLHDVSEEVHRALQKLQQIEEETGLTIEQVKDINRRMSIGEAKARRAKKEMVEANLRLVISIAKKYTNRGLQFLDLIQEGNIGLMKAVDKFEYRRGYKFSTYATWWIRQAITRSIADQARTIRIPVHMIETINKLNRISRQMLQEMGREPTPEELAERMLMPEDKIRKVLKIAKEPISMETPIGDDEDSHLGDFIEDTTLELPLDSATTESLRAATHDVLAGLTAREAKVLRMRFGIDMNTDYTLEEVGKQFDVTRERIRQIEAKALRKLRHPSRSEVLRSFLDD

SMILES: ON=C1CCN(c2ccc(C(=NO)Nc3cccc(Cl)c3)cc2C(F)(F)F)C1 [Compound 109]
- IC50 [1]: 10 to 50 µM
- IC50 (RNA-pol S. aureus): > 50 µM
- MIC (S. aureus): < 40 µM
- MIC (E. coli (tolC)): < 40 µM

SMILES: CON=C1CCN(c2ccc(C(=NO)Nc3cccc(Cl)c3)cc2C(F)(F)F)C1 [Compound 110]
- IC50 [1]: > 50 µM
- IC50 (RNA-pol S. aureus): > 50 µM
- MIC (S. aureus): 40 to 125 µM (≈ 17.1 to 53.4 µg/mL)
- MIC (E. coli (tolC)): > 125 µM

SMILES: OCCNc1ccc(C(=NO)Nc2cccc(Cl)c2)cc1C(F)(F)F [Compound 111]
- IC50 [1]: 10 to 50 µM
- MIC (S. aureus): > 125 µM
- MIC (E. coli (tolC)): < 40 µM

SMILES: ON=C(Nc1cccc(Cl)c1)c1ccc(NCCN2CCNCC2)c(C(F)(F)F)c1 [Compound 112]
- IC50 [1]: 10 to 50 µM
- IC50 (RNA-pol S. aureus): > 50 µM
- MIC (S. aureus): > 125 µM
- MIC (E. coli (tolC)): < 40 µM

SMILES: ON=C(Nc1cccc(Cl)c1)c1ccc(NCCc2ccc(O)cc2)c(C(F)(F)F)c1 [Compound 113]
- IC50 [1]: 10 to 50 µM
- MIC (S. aureus): < 40 µM
- MIC (E. coli (tolC)): < 40 µM

SMILES: NS(=O)(=O)c1ccc(CCNc2ccc(C(=NO)Nc3cccc(Cl)c3)cc2C(F)(F)F)cc1 [Compound 114]
- IC50 [1]: < 10 µM
- IC50 (RNA-pol S. aureus): > 50 µM
- MIC (S. aureus): < 40 µM
- MIC (E. coli (tolC)): < 40 µM

SMILES: [N-]=[N+]=Nc1cc(/C(=N/O)Nc2cccc(Cl)c2)cc(C(F)(F)F)c1F [Compound 115]
- IC50 [1]: > 50 µM
- IC50 (RNA-pol S. aureus; [2]): > 50 µM
- MIC (S. aureus): < 40 µM
- MIC (E. coli (tolC)): < 40 µM

SMILES: Nc1cc(/C(=N/O)Nc2cccc(Cl)c2)cc(C(F)(F)F)c1F [Compound 116]
- IC50 [1]: < 10 µM
- IC50 (RNA-pol S. aureus; [2]): > 50 µM
- MIC (S. aureus): < 40 µM
- MIC (E. coli (tolC)): < 40 µM

SMILES: Nc1cc(NC(=O)Nc2ccc(Cl)c(C(F)(F)F)c2)cc(C(F)(F)F)c1 [Compound 118]
- IC50 (RNA-pol S. aureus; [2]): > 50 µM
- MIC (S. aureus): < 40 µM
- MIC (E. coli (tolC)): < 40 µM

SMILES: C=CCOC(=O)Nc1cc(NC(=O)Nc2ccc(Cl)c(C(F)(F)F)c2)cc(C(F)(F)F)c1 [Compound 119]
- MIC (S. aureus): < 40 µM
- MIC (E. coli (tolC)): < 40 µM

SMILES: O=C(CSc1ccccc1)Nc1cc(NC(=O)Nc2ccc(Cl)c(C(F)(F)F)c2)cc(C(F)(F)F)c1 [Compound 120]
- IC50 [1]: > 50 µM
- IC50 (RNA-pol S. aureus; [2]): 10 to 50 µM
- MIC (S. aureus): < 40 µM
- MIC (E. coli (tolC)): < 40 µM

SMILES: O=C(COc1ccc(Cl)cc1)Nc1cc(NC(=O)Nc2ccc(Cl)c(C(F)(F)F)c2)cc(C(F)(F)F)c1 [Compound 121]
- IC50 (RNA-pol S. aureus; [2]): > 50 µM
- MIC (S. aureus): < 40 µM
- MIC (E. coli (tolC)): > 125 µM

SMILES: O=C(Nc1cc(NS(=O)(=O)c2ccc(C(F)(F)F)cc2)cc(C(F)(F)F)c1)Nc1ccc(Cl)c(C(F)(F)F)c1 [Compound 122]
- IC50 (RNA-pol S. aureus; [2]): 10 to 50 µM
- MIC (S. aureus): < 40 µM
- MIC (E. coli (tolC)): > 125 µM

SMILES: O=C(Nc1cc(N2CCCC2)cc(C(F)(F)F)c1)Nc1ccc(Cl)c(C(F)(F)F)c1 [Compound 123]
- IC50 (RNA-pol S. aureus; [2]): < 10 µM
- MIC (S. aureus): < 40 µM
- MIC (E. coli (tolC)): > 125 µM

SMILES: COCC1CCCN1c1cc(NC(=O)Nc2ccc(Cl)c(C(F)(F)F)c2)cc(C(F)(F)F)c1 (stereo not drawn) [Compound 124]
- IC50 (RNA-pol S. aureus; [2]): 10 to 50 µM
- MIC (S. aureus): < 40 µM
- MIC (E. coli (tolC)): > 125 µM

SMILES: O=C(Nc1cc(N2CCOCC2)cc(C(F)(F)F)c1)Nc1ccc(Cl)c(C(F)(F)F)c1 [Compound 125]
- IC50 (RNA-pol S. aureus; [2]): 10 to 50 µM
- MIC (S. aureus): < 40 µM
- MIC (E. coli (tolC)): < 40 µM

SMILES: O=C(Nc1cc(N2CCOC2=O)cc(C(F)(F)F)c1)Nc1ccc(Cl)c(C(F)(F)F)c1 [Compound 126]
- IC50 (RNA-pol S. aureus; [2]): < 10 µM
- MIC (S. aureus): > 125 µM
- MIC (E. coli (tolC)): < 40 µM

From patent US7053234B2 (Amgen Inc., priority 2000, dated 2006)
